Laboratory results from ChEMBL document CHEMBL1151573, “Cyclic homopentapeptides 3. Synthetic modifications to the capreomycins and tuberactinomycins: Compounds with activity against methicillin-resistant Staphylococcus aureus and vancomycin-resistant enterococci” (1997).
≈ marks a conversion by molar mass, not a printed value. Numbered stars: 1 amine (or outer) side, 2 acyl side, 3 side chain; on linkers, the order of the positions; unused ones are H or OH. Bridge positions count the residues as written; N and C are the ends. Square brackets hold non-standard residues; d marks the D form. Side chains are listed from the residue outwards. Peptide text beside a SMILES is read from it. * marks the point of attachment. ξ: configuration not given here. NH(4-cHex-phenyl) = c1cc(C2CCCCC2)ccc1N*; X1 = NC1=NCCC([C@H](N[*:1])C(=O)[*:2])N1; X2 = N=C1NCCC([C@H](N[*:1])C(=O)[*:2])N1; ΔAla(Z-3-ureido) = NC(=O)N/C=C(\N)C(=O)O; ΔDap(Z) = O=C(/C(=C/N[*:3])N[*:1])[*:2]; β3hR = N=C(N)NCCC[C@H](N)CC(=O)O; β3hOrn = NCCC[C@H](N)CC(=O)*; ξβ3hOrn = NCCCC(N)CC(=O)*; Dap = NC[C@H](N)C(=O)O; X3 = NCC[C@H](O)C(=O)*; CO = O=C([*:1])[*:2]; ξDap = NCC(N)C(=O)O

Experiments:
[1] = Antibacterial activity against Enterococcus faecalis (vancomycin-resistant, methicillin-resistant, ciprofloxacin-resistant); type: functional, erythromycin faecalis
[2] = Antibacterial activity against Enterococcus faecium (vancomycin-resistant, erythromycin-resistant, ciprofloxacin-resistant); type: functional
[3] = system: Staphylococcus aureus; assay: Antibacterial activity against Staphylococcus aureus (erythromycin- resistant, methicillin-resistant, ciprofloxacin- resistant) was determined; type: functional

Row | Structure (SMILES) | MIC [1] [µg/mL] | MIC [2] [µg/mL] | MIC [3] [µg/mL]
1 | NC(N)=NCCC[C@H](N)CC(=O)NC[C@@H]1NC(=O)[C@H](CO)NC(=O)C(N)CNC(=O)[C@H](C2CCN=C(N)N2)NC(=O)/C(=C/NC(=O)Nc2ccc(C3CCCCC3)cc2)NC1=O (stereo partly drawn) (H-[ξDap]S[Dap](β3hR)[ΔDap(Z)]([CO-NH(4-cHex-phenyl)])[X1]; lactam 1-C) | 3.12 (≈ 3.59 µM) | 3.12 (≈ 3.59 µM) | 1.56 (≈ 1.8 µM)
2 | NCCC[C@H](N)CC(=O)NC[C@@H]1NC(=O)[C@H](CO)NC(=O)C(NC(=O)[C@@H](O)CCN)CNC(=O)[C@H](C2CCN=C(N)N2)NC(=O)/C(=C/NC(=O)Nc2ccc(C3CCCCC3)cc2)NC1=O (stereo partly drawn) (X3-[ξDap]S[Dap](β3hOrn)[ΔDap(Z)]([CO-NH(4-cHex-phenyl)])[X1]; lactam 1-C) | 6.25 (≈ 6.73 µM) | 6.25 (≈ 6.73 µM) | 3.12 (≈ 3.36 µM)
3 | C[C@@H]1NC(=O)[C@@H](N)CNC(=O)[C@H](C2CCNC(=N)N2)NC(=O)/C(=C/NC(N)=O)NC(=O)[C@H](CNC(=O)CC(N)CCCN)NC1=O.N=C1NCCC([C@@H]2NC(=O)/C(=C/NC(N)=O)NC(=O)[C@H](CNC(=O)CC(N)CCCN)NC(=O)[C@H](CO)NC(=O)[C@@H](N)CNC2=O)N1 (stereo partly drawn) [CAPREOMYCIN] (H-[Dap]S[Dap](ξβ3hOrn)[ΔAla(Z-3-ureido)][X2]; lactam 1-C) | > 1000 | > 1000 | 100
4 | NCCCNCCC(=O)NC1CNC(=O)[C@@H](C2CCN=C(N)N2)NC(=O)/C(=C/Nc2ccc(Cl)c(Cl)c2)NC(=O)[C@@H](CO)NC(=O)[C@@H](CO)NC1=O (stereo not given in full) | 50 (≈ 64.8 µM) | 50 (≈ 64.8 µM) | 50 (≈ 64.8 µM)
5 | O=C(N/N=C/c1cccc2c(OCc3ccc(OC(F)(F)F)cc3)cccc12)c1ccc(O)c(Cl)c1 | 12.5 (≈ 24.3 µM) | 3.12 (≈ 6.06 µM) | 25 (≈ 48.6 µM)
6 | NC1=NC([C@H]2NC(=O)/C(=C/NC(=O)Nc3ccc(C4CCCCC4)cc3)NC(=O)[C@@H](CO)NC(=O)[C@@H](CO)NC(=O)C(NC(=O)Nc3ccc(Br)cc3)CNC2=O)CCN1 (stereo not given in full) | 12.5 (≈ 13.9 µM) | 6.25 (≈ 6.96 µM) | 12.5 (≈ 13.9 µM)
7 | NCCC[C@H](N)CC(=O)NC[C@@H]1NC(=O)[C@H](CO)NC(=O)C(N)CNC(=O)[C@H](C2CCN=C(N)N2)NC(=O)/C(=C/NC(=O)Nc2ccc(C3CCCCC3)cc2)NC1=O (stereo partly drawn) (H-[ξDap]S[Dap](β3hOrn)[ΔDap(Z)]([CO-NH(4-cHex-phenyl)])[X1]; lactam 1-C) | 3.12 (≈ 3.77 µM) | 3.12 (≈ 3.77 µM) | 1.56 (≈ 1.89 µM)
8 | NCC1NC(=O)[C@H](CO)NC(=O)[C@H](CO)NC(=O)C(NC(=O)Nc2ccc(C3CCCCC3)cc2)CNC(=O)[C@H](C2CCN=C(N)N2)NC1=O (stereo not given in full) ({NH(4-cHex-phenyl)-CO}-[ξDap]SS[ξDap][X1]; lactam 1-C) | > 100 | > 100 | > 100
9 | CN[C@H](CC(C)C)C(=O)N[C@H]1C(=O)N[C@@H](CC(N)=O)C(=O)N[C@H]2C(=O)N[C@H]3C(=O)N[C@H](C(=O)N[C@H](C(=O)O)c4cc(O)cc(O)c4-c4cc3ccc4O)[C@H](O)c3ccc(c(Cl)c3)Oc3cc2cc(c3O[C@@H]2O[C@H](CO)[C@@H](O)[C@H](O)[C@H]2O[C@H]2C[C@](C)(N)[C@H](O)[C@H](C)O2)Oc2ccc(cc2Cl)[C@H]1O [VANCOMYCIN] | > 100 | > 100 | 0.78 (≈ 0.538 µM)
10 | NCC[C@@H](O)[C@H](N)CC(=O)NC1CNC(=O)[C@@H](C2CCN=C(N)N2)NC(=O)/C(=C/Nc2ccc(Cl)c(Cl)c2)NC(=O)[C@@H](CO)NC(=O)[C@@H](CO)NC1=O (stereo not given in full) | 50 (≈ 63.5 µM) | 25 (≈ 31.7 µM) | 12.5 (≈ 15.9 µM)
